Test [1] has as its system S6 Ribosomal Protein phosphorylation Ser235/236 in TSC1 null mouse embryo fibroblast (MEF) cells. In words: Reverse protein array assay, S6 Ribosomal Protein phosphorylation Ser235/236 in TSC1 null MEF cells. The test is classed as cell-based. To be noted: 1 h, pS6 ribosomal protein Ser235/236, 60 minutes incubation, read-out: p-S6 IC50. An outline of the steps:
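TSC1−/− MEFs, seeded and held ≥20 h at 37 °C/5% CO2, were exposed to 8-step serial compound dilutions (0.02% DMSO final; DMSO vehicle control) for 60 min at 37 °C. Cells were then lysed on ice for 10 min and lysates spotted onto reverse protein array chips.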

The test system of test [2] is PKB Ser473 phosphorylation in Rat1-myr-HA-p110 beta cells. Description: Reverse protein array assay, PKB Ser473 phosphorylation in Rat1-myr-p110 beta cells. The class given is cell-based. To be noted: 0.5 h, pAkt Ser473, 30 minutes incubation, read-out: p-PKB IC50. The gist of the method:
(§1)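 After at least 20 h of culture, the p110 isoform-transfected Rat1 lines receive compound in an 8-step dilution series, keeping DMSO at 0.2%, for 30 minutes. Cells are then lysed and lysates arrayed on chips for fluorescence detection of Ser473-phosphorylated PKB.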

Test [3] relates to PKB Ser473 phosphorylation in Rat1-myr-HA-p110 delta cells. In words: Reverse protein array assay, PKB Ser473 phosphorylation in Rat1-myr-p110 delta cells. The class given is cell-based. To be noted: read-out: p-PKB IC50. The gist of the method:
as §1

The subject of test [4] is PKB Ser473 phosphorylation in Rat1-myr-HA-p110 alpha cells. Description: Reverse protein array assay, PKB Ser473 phosphorylation in Rat1-myr-p110 alpha cells. The test is classed as cell-based. The following applies: 0.5 h, pAkt Ser473, 30 minutes compound incubation, read-out: p-PKB IC50. The gist of the method:
as §1

A further test has as its target T1, PI3K gamma (Homo sapiens, UniProt P48736).
T1 construct: His tag (C); made in house; host or cells: baculovirus (pVL1393); Tn5 or TiniPro insect cells; construct from Roger Williams lab, MRC LMB
Description: PI3K gamma kinase assay (Kinase-Glo luminescence). The test is classed as biochemical. The gist of the method:
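PI3Kγ (150 nM) reaction run 120 min at room temperature with phosphatidylinositol substrate (10 μg/mL) and ATP (1 μM) in Tris pH 7.5 buffer containing MgCl2, NaCl, CHAPS and DTT. Remaining ATP detected by Kinase-Glo luminescence; 8 concentrations per compound, IC50 from 4-parameter curve fitting.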
For orientation: Kinase-Glo measures the ATP left after a reaction by luminescence.

For six compounds, IC50 results are on record in patent publication US20140005163A1 (NOVARTIS AG, priority 2010, published 2014).

T1 sequence (P48736 144-1102 limits assumed): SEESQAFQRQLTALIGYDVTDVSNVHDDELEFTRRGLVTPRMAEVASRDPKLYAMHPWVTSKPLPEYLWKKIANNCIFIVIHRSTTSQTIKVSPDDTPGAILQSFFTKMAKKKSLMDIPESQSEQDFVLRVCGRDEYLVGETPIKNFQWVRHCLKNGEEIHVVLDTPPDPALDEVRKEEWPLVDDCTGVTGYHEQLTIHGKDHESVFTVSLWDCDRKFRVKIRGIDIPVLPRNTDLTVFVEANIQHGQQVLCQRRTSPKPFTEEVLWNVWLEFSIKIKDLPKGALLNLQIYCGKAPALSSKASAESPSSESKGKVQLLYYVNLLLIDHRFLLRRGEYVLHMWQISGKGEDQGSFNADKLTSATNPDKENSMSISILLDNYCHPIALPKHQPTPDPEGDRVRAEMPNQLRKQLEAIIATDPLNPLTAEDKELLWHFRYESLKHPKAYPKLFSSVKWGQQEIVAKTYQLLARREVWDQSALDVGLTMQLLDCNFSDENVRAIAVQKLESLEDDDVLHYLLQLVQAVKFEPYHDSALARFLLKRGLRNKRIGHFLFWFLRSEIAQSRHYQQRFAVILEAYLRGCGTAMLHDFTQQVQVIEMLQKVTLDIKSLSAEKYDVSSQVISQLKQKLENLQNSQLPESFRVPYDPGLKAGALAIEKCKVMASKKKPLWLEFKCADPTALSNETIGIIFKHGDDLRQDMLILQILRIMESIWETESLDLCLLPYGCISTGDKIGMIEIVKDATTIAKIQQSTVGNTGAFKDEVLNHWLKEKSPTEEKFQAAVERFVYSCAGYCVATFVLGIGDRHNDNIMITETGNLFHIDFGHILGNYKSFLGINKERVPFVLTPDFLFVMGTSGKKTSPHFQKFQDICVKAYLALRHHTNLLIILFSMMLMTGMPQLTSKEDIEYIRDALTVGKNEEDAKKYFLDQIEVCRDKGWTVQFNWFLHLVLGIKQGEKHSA

The IC50 is the concentration that gives 50% inhibition. For `Cc1nn(C)cc1-n1c(=O)n(C)c2cnc3ccc(-c4ccc(N5CCC5)nc4)cc3c21` [Example 5.1, 8-(6-Azetidin-1-yl-pyridin-3-yl)-1-(1,3-dimethyl-1H-pyrazol-4-yl)-3-methyl-1,3-dihydro-imidazo[4,5-c]quinolin-2-one], the IC50 in test [1] was 10 nM; in test [2], 8 nM; in test [3], 18 nM; in test [4] it was 7 nM; on PI3K gamma, 309 nM.
In the case of `CCn1cc(-n2c(=O)n(C)c3cnc4ccc(-c5ccc(OC)nc5)cc4c32)c(C)n1` [Example 2.7, 1-(1-Ethyl-3-methyl-1H-pyrazol-4-yl)-8-(6-methoxy-pyridin-3-yl)-3-methyl-1,3-dihydro-imidazo[4,5-c]quinolin-2-one], the IC50 in test [1] is 6 nM; in test [2] it was 38 nM; in test [3] it was 62 nM; in test [4] it was 28 nM; on PI3K gamma, 217 nM.
For the compound `CNC(=O)c1cc(-c2ccc3ncc4c(c3c2)n(-c2cn(C)nc2C)c(=O)n4C)cnc1OC` [Example 125.1, 5-[1-(1,3-Dimethyl-1H-pyrazol-4-yl)-3-methyl-2-oxo-2,3-dihydro-1H-imidazo[4,5-c]quinolin-8-yl]-2-methoxy-N-methyl-nicotinamide], the IC50 was 2 nM in test [1]; 98 nM in test [2]; 91 nM in test [3]; 75 nM in test [4]; 363 nM on PI3K gamma.
Taken in the same sequence, the figures for `COc1ccc(-c2ccc3ncc4c(c3c2)n(-c2cn(C(C)C)nc2C)c(=O)n4C)cc1OC` [Example 1.5, 8-(3,4-Dimethoxy-phenyl)-1-(1-isopropyl-3-methyl-1H-pyrazol-4-yl)-3-methyl-1,3-dihydro-imidazo[4,5-c]quinolin-2-one] were under 5 nM, 23 nM, 50 nM, 16 nM and 132 nM.
Taken in the same sequence, the figures for `CCOc1ccc(-c2ccc3ncc4c(c3c2)n(-c2c(C)nn(C)c2C)c(=O)n4C)cc1OCC` [Example 27.2, 8-(3,4-Diethoxy-phenyl)-3-methyl-1-(1,3,5-trimethyl-1H-pyrazol-4-yl)-1,3-dihydro-imidazo[4,5-c]quinolin-2-one] were 234 nM, 389 nM, 508 nM, 14 nM and 137 nM.
Taken in the same sequence, the figures for `CCOc1ccc(-c2ccc3ncc4c(c3c2)n(-c2cn(C(C)C)nc2C)c(=O)n4C)cn1` [Example 3.7, 8-(6-Ethoxy-pyridin-3-yl)-1-(1-isopropyl-3-methyl-1H-pyrazol-4-yl)-3-methyl-1,3-dihydro-imidazo[4,5-c]quinolin-2-one] were 30 nM, 51 nM, 186 nM, 43 nM and 303 nM.
